# Reference: publication PMC12521615, “Accurate affinity models for SH2 domains from peptide binding assays and free‐energy regression” (Protein Science : A Publication of the Protein Society, 2025)
# Non-standard residues stand in square brackets, D forms with d. Residues, ends and D or L forms follow the SMILES beside them. pY = N[C@@H](Cc1ccc(OP(=O)(O)O)cc1)C(=O)O
# Target: T1, Fyn SH2 domain (Homo sapiens, UniProt P06241)
# T1 construct: The human SH2 domains from Fyn (142–248), Lyn (121–228); His6-SUMO (N, cleaved yes); host or cells: Escherichia coli C43(DE3) with BirA helper plasmid
# T1 sequence (P06241 142-248): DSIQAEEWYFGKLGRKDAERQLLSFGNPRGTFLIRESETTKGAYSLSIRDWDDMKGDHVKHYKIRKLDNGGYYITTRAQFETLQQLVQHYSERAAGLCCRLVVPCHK
# Experiment: biochemical
# Type: binding
# Settings: not given
# From the text: The human SH2 domains from Fyn (142–248), Lyn (121–228), Blk (116–222), and Yes (150–257) kinases were PCR‐amplified from plasmids encoding the full‐length proteins and cloned using the NEBuilder® HiFi DNA Assembly Master Mix (NEB) in a pET plasmid backbone that was PCR‐amplified with the primers pETXbaI_for and pETXhoI_rev (these and all other primers are defined in Table S7) from the pET‐His6‐SUMO‐Grb2(SH2), as reported before (Li et al., [2023]), thus adding an N‐terminal His6‐SUMO tag and a C‐terminal AviTag® for biotinylation. The SH2 plasmids are available via Addgene: pET28‐His6‐SUMO‐Fyn‐SH2‐AviTag (214202), pET28‐His6‐SUMO‐Blk‐SH2‐AviTag (214204), pET28‐His6‐SUMO‐Lyn‐SH2‐AviTag (214207), pET28‐His6‐SUMO‐Yes‐SH2‐AviTag (214208), and pET28‐His6‐SUMO‐cSrc‐SH2‐AviTag (214230). For expression and parallel biotinylating of the SH2 domain product, Escherichia coli C43(DE3) cells carrying a BirA encoding helper plasmid were transformed with the respective SH2 domain expression construct and plated to grow overnight at 37°C on a streptomycin and kanamycin (100 μg/mL both) LB‐agar plate. The colonies were collected in 10 mL of TB medium and used to inoculate 1 L of TB medium and grown at 37°C and 215 rpm. Upon reaching an OD600 of 0.5, the expression of the SH2 domains was induced by adding IPTG up to 0.5 mM and biotin up to 250 μM, and the expressing culture was incubated at 18°C for 16–18 h. After removing the medium through centrifugation, the cell pellets were snap‐frozen in liquid N2 and stored at −80°C until purification. To purify the biotinylated SH2 domains, the cell pellets were resuspended in lysis buffer (50 mM Tris, pH 7.5, 300 mM NaCl, 20 mM imidazole, 10% glycerol), supplementing them with 2 mM β‐mercaptoethanol and 1× protease inhibitor cocktail before lysis by sonication (Fisherbrand Sonic Dismembrator). The soluble fraction separated after centrifugation at 33,000 g was run on a HisTrap HP column (Cytiva), then washed with 10 CV of the lysis buffer followed by 10 CV of wash buffer (50 mM Tris, pH 7.5, 50 mM NaCl, 10 mM imidazole, 10% glycerol). Next, the protein was eluted with elution buffer (50 mM Tris, pH 7.5, 50 mM NaCl, 250 mM imidazole, 10% glycerol) directly onto a 5 mL HiTrap Q HP anion exchange column (Cytiva). The biotinylated SH2 domain was then eluted from the anion exchange column with an NaCl gradient (50 mM Tris, pH 7.5, 0.05–1 M NaCl, 1 mM TCEP‐HCl), and the His6‐SUMO tag was cleaved using 0.05 mg/mL Ulp1 protease. The biotinylated SH2 domain was then collected in a flowthrough after running the cleavage reaction over a HisTrap HP column. Finally, the biotinylated SH2 domain in the flowthrough was run on a HiLoad 16/600 Superdex 75 pg size exclusion column (Cytiva) in storage buffer (20 mM HEPES, pH 7.5, 150 mM NaCl, 10% glycerol). The purified biotinylated SH2 domains were aliquoted, snap‐frozen in liquid N2, and stored at −80°C.
# Measured binding constants (K D) from competition mode fluorescence polarization experiments were obtained using the purified SH2 domains used for the selection and chosen sets of peptides with a phosphorylated tyrosine exactly as described previously (Li et al., [2023]). […] (c‐Src SH2 consensus) was used as the probe, and for the Grb2 SH2 domain, the fluorescently labeled peptide FITC‐Ahx‐FDDPS(pY)VNVQN (Ahx = 6‐aminohexanoic acid) from the Y177 phospho‐tyrosine site of BCR. Before performing the competition mode fluorescence polarization measurement, the K D of the probes for the respective SH2 domains was first measured in a direct mode of fluorescence polarization.
row,Compound,Kd [nM]
1,CC[C@H](C)[C@H](NC(=O)[C@@H]1CCCN1C(=O)[C@H](CCC(N)=O)NC(C)=O)C(=O)N[C@@H](Cc1ccccc1)C(=O)N[C@@H](CCC(=O)O)C(=O)NCC(=O)N[C@@H](Cc1ccc(OP(=O)(O)O)cc1)C(=O)N[C@@H](C)C(=O)N[C@@H](CC(C)C)C(=O)N1CCC[C@H]1C(=O)N[C@@H](Cc1c[nH]cn1)C(=O)N[C@@H](C)C(=O)NCC(N)=O [ACTA1 pY171] (Ac-QPIFEG[pY]ALPHAG-NH2),47.3
2,CC(=O)N[C@@H](CCC(N)=O)C(=O)N[C@@H](CO)C(=O)N[C@@H](CC(C)C)C(=O)N[C@@H](CCC(=O)O)C(=O)N[C@@H](CCCCN)C(=O)N[C@@H](CO)C(=O)N[C@@H](Cc1ccc(OP(=O)(O)O)cc1)C(=O)N[C@@H](CCC(=O)O)C(=O)N[C@@H](CC(C)C)C(=O)N[C@@H](CC(C)C)C(=O)N[C@@H](CC(=O)O)C(=O)NCC(=O)NCC(N)=O [ACTB pY240 P243L] (Ac-QSLEKS[pY]ELLDGG-NH2),141
3,CC(=O)N[C@@H](CCC(N)=O)C(=O)N[C@@H](CC(C)C)C(=O)N[C@@H](Cc1c[nH]cn1)C(=O)N[C@H](C(=O)N[C@@H](Cc1c[nH]cn1)C(=O)N1CCC[C@H]1C(=O)N[C@@H](Cc1ccc(OP(=O)(O)O)cc1)C(=O)N[C@@H](CCC(=O)O)C(=O)N[C@@H](CCCCN)C(=O)N[C@H](C(=O)N[C@@H](CCC(=O)O)C(=O)N[C@@H](CC(=O)O)C(=O)NCC(N)=O)C(C)C)C(C)C [Syn-F-1] (Ac-QLHVHP[pY]EKVEDG-NH2),30.2
4,CSCC[C@H](NC(=O)[C@H](CCC(N)=O)NC(C)=O)C(=O)N[C@@H](CCC(=O)O)C(=O)N[C@@H](CCCCN)C(=O)N[C@@H](Cc1c[nH]cn1)C(=O)N[C@H](C(=O)N[C@@H](Cc1ccc(OP(=O)(O)O)cc1)C(=O)N[C@@H](CCC(=O)O)C(=O)N[C@@H](CO)C(=O)N[C@H](C(=O)N[C@H](C(=O)N[C@@H](CCC(N)=O)C(=O)NCC(N)=O)[C@@H](C)O)C(C)C)C(C)C [Syn-F-2] (Ac-QMEKHV[pY]ESVTQG-NH2),18.3
5,CC[C@H](C)[C@H](NC(=O)CNC(=O)[C@H](CCC(=O)O)NC(=O)[C@@H](NC(=O)[C@H](CCC(N)=O)NC(C)=O)C(C)C)C(=O)N[C@@H](CO)C(=O)N[C@@H](Cc1ccc(OP(=O)(O)O)cc1)C(=O)N[C@@H](CC(=O)O)C(=O)N[C@@H](Cc1ccccc1)C(=O)N[C@H](C(=O)N1CCC[C@H]1C(=O)N[C@H](C(=O)NCC(N)=O)[C@@H](C)O)[C@@H](C)CC [CBS pY308 G307S] (Ac-QVEGIS[pY]DFIPTG-NH2),185

# Same assay, conditions: Table S3, unpaired validation; competition fluorescence polarization; probe FITC-Ahx-GDG-pY-EEISPLLL-NH2 0.4 nM; [SH2] 4.12 nM; mean; read-out: Kd mean
row,Compound,Kd [nM]
1,CC[C@H](C)[C@H](NC(=O)CNC(=O)[C@H](CCC(=O)O)NC(=O)[C@@H](NC(=O)[C@H](CCC(N)=O)NC(C)=O)C(C)C)C(=O)NCC(=O)N[C@@H](Cc1ccc(OP(=O)(O)O)cc1)C(=O)N[C@@H](CC(=O)O)C(=O)N[C@@H](Cc1ccccc1)C(=O)N[C@H](C(=O)N1CCC[C@H]1C(=O)N[C@H](C(=O)NCC(N)=O)[C@@H](C)O)[C@@H](C)CC [CBS pY308] (Ac-QVEGIG[pY]DFIPTG-NH2),126
2,CC[C@H](C)[C@H](NC(=O)[C@H](CC(C)C)NC(=O)[C@H](CO)NC(=O)[C@H](Cc1ccc(OP(=O)(O)O)cc1)NC(=O)[C@H](CCCNC(=N)N)NC(=O)[C@H](CCCNC(=N)N)NC(=O)[C@H](CCC(N)=O)NC(=O)[C@H](CC(=O)O)NC(=O)[C@H](CO)NC(=O)[C@H](CCC(N)=O)NC(C)=O)C(=O)N[C@@H](CC(=O)O)C(=O)N1CCC[C@H]1C(=O)NCC(N)=O [CLIP2 pY972 R977P] (Ac-QSDQRR[pY]SLIDPG-NH2),27
3,CC[C@H](C)[C@H](NC(=O)[C@H](CC(C)C)NC(=O)[C@H](CO)NC(=O)[C@H](Cc1ccc(OP(=O)(O)O)cc1)NC(=O)[C@H](CCCNC(=N)N)NC(=O)[C@H](CCCNC(=N)N)NC(=O)[C@H](CCC(N)=O)NC(=O)[C@H](CC(=O)O)NC(=O)[C@H](CO)NC(=O)[C@H](CCC(N)=O)NC(C)=O)C(=O)N[C@@H](CC(=O)O)C(=O)N[C@@H](CCCNC(=N)N)C(=O)NCC(N)=O [CLIP2 pY972] (Ac-QSDQRR[pY]SLIDRG-NH2),78.5
4,CC(=O)N[C@@H](CCC(N)=O)C(=O)N[C@@H](CO)C(=O)N[C@@H](CC(C)C)C(=O)N[C@@H](CCC(=O)O)C(=O)N[C@@H](CCCCN)C(=O)N[C@@H](CO)C(=O)N[C@@H](Cc1ccc(OP(=O)(O)O)cc1)C(=O)N[C@@H](CCC(=O)O)C(=O)N[C@@H](CC(C)C)C(=O)N1CCC[C@H]1C(=O)N[C@@H](CC(=O)O)C(=O)NCC(=O)NCC(N)=O [ACTB pY240] (Ac-QSLEKS[pY]ELPDGG-NH2),159
